Test results reported in ChEMBL document CHEMBL4428111, “Antiplasmodial activity of alkyl-substituted 1,2-dioxetanes against Plasmodium falciparum” (Bioorg Med Chem Lett, 2016).
Values after ≈ are worked out from the molar mass of the structure shown.

Columns and labels:
[1] = test system: Plasmodium falciparum; assay: Antiplasmodial activity against chloroquine-resistant/mefloquine-sensitive Plasmodium falciparum W2 schizonts infected in human erythrocytes assessed as parasite invasion after 24 hrs by Diff-Quick staining based microscopic analysis (reference value: 15.26 +/- 2.13%); assay type: functional
[2] = test system: Plasmodium falciparum; assay: Antiplasmodial activity against chloroquine-resistant/mefloquine-sensitive Plasmodium falciparum W2 schizonts infected in human erythrocytes assessed as inhibition of parasite invasion at 10^-9 mol/L after 24 hrs by Diff-Quick staining based microscopic analysis relative to control; assay type: functional; conditions: W2, 24 h
[3] = test system: Plasmodium falciparum; assay: Antiplasmodial activity against chloroquine-resistant/mefloquine-sensitive Plasmodium falciparum W2 schizonts infected in human erythrocytes assessed as inhibition of parasite invasion at 10^-12 mol/L after 24 hrs by Diff-Quick staining based microscopic analysis relative to control; assay type: functional; conditions: W2, 24 h
[4] = test system: Plasmodium falciparum; assay: Antiplasmodial activity against chloroquine-resistant/mefloquine-sensitive Plasmodium falciparum W2 schizonts infected in human erythrocytes assessed as inhibition of parasite invasion at 10^-10 mol/L after 24 hrs by Diff-Quick staining based microscopic analysis relative to control; assay type: functional; conditions: W2, 24 h
[5] = test system: Plasmodium falciparum; assay: Antiplasmodial activity against chloroquine-resistant/mefloquine-sensitive Plasmodium falciparum W2 schizonts infected in human erythrocytes assessed as inhibition of parasite invasion at 10^-8 mol/L after 24 hrs by Diff-Quick staining based microscopic analysis relative to control; assay type: functional; conditions: W2, 24 h
[6] = test system: Plasmodium falciparum; assay: Antiplasmodial activity against chloroquine-resistant/mefloquine-sensitive Plasmodium falciparum W2 schizonts infected in human erythrocytes assessed as inhibition of parasite invasion after 24 hrs by Diff-Quick staining based microscopic analysis; assay type: functional, organism-based; conditions: W2, 24 h
[7] = test system: Plasmodium falciparum; assay: Antiplasmodial activity against chloroquine-resistant/mefloquine-sensitive Plasmodium falciparum W2 schizonts infected in human erythrocytes assessed as inhibition of parasite invasion at 10^-7 mol/L after 24 hrs by Diff-Quick staining based microscopic analysis relative to control; assay type: functional; conditions: W2, 24 h
[8] = test system: Plasmodium falciparum; assay: Antiplasmodial activity against chloroquine-resistant/mefloquine-sensitive Plasmodium falciparum W2 schizonts infected in human erythrocytes assessed as inhibition of parasite invasion at 10^-4 mol/L after 24 hrs by Diff-Quick staining based microscopic analysis relative to control; assay type: functional; conditions: W2, 24 h
[9] = test system: Plasmodium falciparum; assay: Antiplasmodial activity against chloroquine-resistant/mefloquine-sensitive Plasmodium falciparum W2 schizonts infected in human erythrocytes assessed as inhibition of parasite invasion at 10^-6 mol/L after 24 hrs by Diff-Quick staining based microscopic analysis relative to control; assay type: functional; conditions: W2, 24 h
[10] = test system: Erythrocyte; assay: Hemolytic activity against human RBC assessed as reduction in hemoglobin release after 24 hrs by spectrophotometric method; assay type: ADME, cell-based
[11] = test system: Erythrocyte; assay: Hemolytic activity against human RBC assessed as reduction in hemoglobin release at 10^-8 M after 24 hrs by spectrophotometric method relative to control; assay type: ADME, cell-based; parameters: scale not given: the % may be the effect or the level left; conditions: 0.01 µM
[12] = test system: Plasmodium falciparum; assay: Antiplasmodial activity against chloroquine-resistant/mefloquine-sensitive Plasmodium falciparum W2 schizonts infected in human erythrocytes assessed as inhibition of parasite invasion at 10^-11 mol/L after 24 hrs by Diff-Quick staining based microscopic analysis relative to control; assay type: functional; conditions: W2, 24 h
[13] = test system: Plasmodium falciparum; assay: Antiplasmodial activity against chloroquine-resistant/mefloquine-sensitive Plasmodium falciparum W2 schizonts infected in human erythrocytes assessed as inhibition of parasite invasion after 24 hrs by Diff-Quick staining based microscopic analysis relative to artemisinin; assay type: functional
[14] = test system: Plasmodium falciparum; assay: Antiplasmodial activity against chloroquine-resistant/mefloquine-sensitive Plasmodium falciparum W2 schizonts infected in human erythrocytes assessed as inhibition of parasite invasion at 10^-14 mol/L after 24 hrs by Diff-Quick staining based microscopic analysis relative to control; assay type: functional; conditions: W2, 24 h
[15] = test system: Plasmodium falciparum; assay: Antiplasmodial activity against chloroquine-resistant/mefloquine-sensitive Plasmodium falciparum W2 schizonts infected in human erythrocytes assessed as inhibition of parasite invasion at 10^-5 mol/L after 24 hrs by Diff-Quick staining based microscopic analysis relative to control; assay type: functional; conditions: W2, 24 h
[16] = Therapeutic index, ratio of MHC for human RBC to MIC for chloroquine-resistant/mefloquine-sensitive Plasmodium falciparum W2 schizonts infected in human erythrocytes; assay type: toxicity, cell-based; conditions: read-out: TI

Compound | Activity [1] | inhibition at 0.001 µM [2] | inhibition at 1 pM [3] | inhibition at 0.0001 µM [4] | inhibition at 0.01 µM [5] | IC50 [6] | MIC [6] | inhibition at 0.1 µM [7] | inhibition at 100 µM [8] | inhibition at 1 µM [9] | MHC [10] | Activity [11] | inhibition at 10 pM [12] | fold change (FC) [13] | inhibition at 10 fM [14] | inhibition at 10 µM [15] | selectivity ratio [16]
C[C@@H]1CC[C@H]2[C@@H](C)C(=O)O[C@@H]3O[C@@]4(C)CC[C@@H]1[C@]32OO4 [ARTEMISININ] | 5.58% | 52.3 to 54% | 38.5 to 40.6% | 43.1 to 48.7% | 63.4 to 67.4% | 0.01 to 0.02 µM | 0.001 nM (≈ 0.000282 ng/mL) | 82.2 to 85.4% | 100% | 99 to 100% | 1 ×10⁻⁴ M | 1.5% | – | – | – | – | –
C1C2CC3CC1CC(C2)C31OOC12C1CC3CC(C1)CC2C3 (configuration not stated) | 6.01% | 53.4 to 54.4% | 20.5 to 21.2% | 36.2 to 38.8% | 64 to 65.8% | 0.00019 µM | – | – | – | 65.6 to 67% | 1 ×10⁻⁶ M | 2% | 24.6 to 25.4% | 105 | 16.7 to 18.4% | – | –
CC1(C)OOC1(C)C | 9.83% | – | 16.7 to 17.4% | 23.4 to 25.6% | 35.6 to 36.3% | 0.045 µM | 0.001 nM (≈ 0.000116 ng/mL) | 60.2 to 60.3% | – | 74.7 to 79.4% | 1 ×10⁻⁵ M | 1.4% | – | 0.45 | – | 81 to 84% | 1e+07
